# Experimental data taken from patent publication US8809369B2, “Tetrahydroquinoline derivatives” (Hoffmann-La Roche Inc., priority 2011, dated 2014).
# Tested on: AMP-activated protein kinase (AMPK)
# Assay: p-AMPK expression level in L6 cell line by Western blot
# Format: cell-based
# Details: L6 cells, 2 hours compound treatment
# Protocol: Evaluation of p-AMPK and p-ACC expression level in L6 cell line by Western-Blot
# This method evaluates the changes of AMP-activated protein kinase (AMPK) and ACC (acetyl-CoA carboxylase) activity by small molecular modulators through detecting the level of p-AMPK and p-ACC proteins in L6 cells using Western blot.
# L6 cells are maintained in DMEM medium supplemented with 10% FBS in 10-cm dishes. Prior to compounds treatment, L6 cells are seeded in 12-well-plates at concentration of 3×10^4 cells per well. After 24 hours of incubation in 12-well plates, L6 cells are differentiated by replacing the 10% FBS-DMEM medium with 2% FBS-DMEM. Differentiation usually takes 5 days, during which the culture medium is changed every 2 days.
# The compound concentrations typically range from 32 μM to 0.5 μM with 2-fold dilution in 2 ml DMEM and 7 doses. The final DMSO concentration is 0.4%. Berberine is used as a positive control at concentration of 16 μM. Before compound treatment, starve L6 cells for 2 hours by replacing the medium with DMEM, and then gently aspirate the media from each well. Add the compounds into the plates and incubate at 37 degree 5% CO2 for 2 hours.
# Prepare lysis buffer (RIPA buffer with protease-inhibitors and phosphorate-inhibitors) and place it on ice. After two hour's compound treatment, aspirate the medium from 12-well plates, add 70 ul lysis buffer to each well and keep the plates on ice for 5 min. Then scrape the cell lysate off the plates and transfer it to 1.5 ml eppendorf tubes. Keep the tube on ice for more 10 min, centrifugate the lysate at 13000 rpm, 4 degrees for 15 min and transfer the supernatant to clean tubes.
# Determine protein concentration for each sample using Quickstart Bradford protein quantitation kit. Mix 20 ug protein sample with 4 times loading buffer, heat them at 100° C. for 5 min, store the sample in −80° C. or perform Western blot assay directly. For Western blot assay, load 20 ug samples and 10 ul Pre-stained Protein Maker into 4-12% SDS-PAGE gradient gel. Run the samples at 100 V in the stacking gel and at 120 V in resolving gel until the Bromophenol dye reaches the bottom. Transfer the electrophoresed proteins to a PVDF membrane using Bio-Rad's Transblot for 120 min at 300 mA. Following the completion of transfer, the membrane is blocked with 5% non-fat milk for 2 hours at room temperature before incubated with primary antibody (p-AMPK and p-ACC) at 4° C. overnight. On the next day wash the membrane twice with TBST, add secondary antibody and incubate for 1 hour at room temperature. Wash the membrane twice with TBST. Develop p-AMPK and p-ACC protein expression level on the film in dark room with Amersham ECL plus kit. The bands of each sample are quantitated by Bio-Rad system, The AC1.3 value is analyzed using Prism 5.0.
row,SMILES,Activity AC1.3 (AMPKp) [µM]
1,"CS(=O)(=O)NC(=O)c1ccc2c(c1)C1(CCCC1)CC(c1cccc(N3CCOCC3)c1)N2 (stereo not shown) [Example 5, N-(methylsulfonyl)-2′-(3-morpholinophenyl)-2′,3′-dihydro-1′H-spiro[cyclopentane-1,4′-quinoline]-6′-carboxamide]",9
2,"CC1(C)CC(c2cc(N3CCOCC3)ccc2Cl)Nc2ccc(C(=O)NS(=O)(=O)C3CC3)cc21 (stereo not shown) [Example 25, Cyclopropanesulfonic acid [2-(2-chloro-5-morpholin-4-yl-phenyl)-4,4-dimethyl-1,2,3,4-tetrahydro-quinoline-6-carbonyl]-amide]",0.21
3,"Cc1ccc(N2CCOC2=O)cc1C1CC(C)(C)c2cc(C(=O)NS(C)(=O)=O)ccc2N1 (stereo not shown) [Example 27, N-{4,4-dimethyl-2-[2-methyl-5-(2-oxo-oxazolidin-3-yl)-phenyl]-1,2,3,4-tetrahydro-quinoline-6-carbonyl}-methanesulfonamide]",0.01
4,"Cc1ccc(N2CCOC2=O)cc1C1CC(C)(C)c2cc(C(=O)NS(=O)(=O)C3CC3)ccc2N1 (stereo not shown) [Example 28, Cyclopropanesulfonic acid {4,4-dimethyl-2-[2-methyl-5-(2-oxo-oxazolidin-3-yl)-phenyl]-1,2,3,4-tetrahydro-quinoline-6-carbonyl}-amide]",0.02
5,"CC1(C)CC(c2cccc(C(N)=O)c2)Nc2ccc(C(=O)NS(C)(=O)=O)cc21 (stereo not shown) [Example 32, 3-(6-Methanesulfonylaminocarbonyl-4,4-dimethyl-1,2,3,4-tetrahydroquinolin-2-yl)-benzamide]",0.002
6,"CC1(C)CC(c2cccc(C#N)c2)Nc2ccc(C(=O)NS(C)(=O)=O)cc21 (stereo not shown) [Example 33, N-[2-(3-cyano-phenyl)-4,4-dimethyl-1,2,3,4-tetrahydro-quinoline-6-carbonyl]-methanesulfonamide]",0.08
7,"CC1(C)CC(c2cccc(C(N)=O)c2)Nc2ccc(C(=O)NS(=O)(=O)C3CC3)cc21 (stereo not shown) [Example 34, 3-(6-Cyclopropanesulfonylaminocarbonyl-4,4-dimethyl-1,2,3,4-tetrahydro-quinolin-2-yl)-benzamide]",0.08
8,"CC1(C)CC(c2cccc(C#N)c2)Nc2ccc(C(=O)NS(=O)(=O)C3CC3)cc21 (stereo not shown) [Example 35, Cyclopropanesulfonic acid [2-(3-cyano-phenyl)-4,4-dimethyl-1,2,3,4-tetrahydro-quinoline-6-carbonyl]-amide]",0.24
9,"Cc1ccc(N2CCN(c3cncc(C4CC(C)(C)c5cc(C(=O)NS(=O)(=O)C6CC6)ccc5N4)c3)CC2)c(C)c1 (stereo not shown) [Example 50, Cyclopropanesulfonic acid (2-{5-[4-(2,4-dimethyl-phenyl)-piperazin-1-yl]-pyridin-3-yl}-4,4-dimethyl-1,2,3,4-tetrahydro-quinoline-6-carbonyl)-amide]",0.16
10,"CN1CCN(c2cccc(C3CC(C)(C)c4cc(C(=O)NS(=O)(=O)C5CC5)ccc4N3)c2)CC1 (stereo not shown) [Example 51, Cyclopropanesulfonic acid {4,4-dimethyl-2-[3-(4-methyl-piperazin-1-yl)-phenyl]-1,2,3,4-tetrahydro-quinoline-6-carbonyl}-amide]",0.18
11,"CC1(C)CC(c2cccc(N3CCCC3)c2)Nc2ccc(C(=O)NS(=O)(=O)C3CC3)cc21 (stereo not shown) [Example 52, Cyclopropanesulfonic acid [4,4-dimethyl-2-(3-pyrrolidin-1-yl-phenyl)-1,2,3,4-tetrahydro-quinoline-6-carbonyl]-amide]",0.55
12,"CC1(C)CC(c2cncc(N3CCOCC3)c2)Nc2ccc(C(=O)NS(=O)(=O)C3CC3)cc21 (stereo not shown) [Example 54, Cyclopropanesulfonic acid [4,4-dimethyl-2-(5-morpholin-4-yl-pyridin-3-yl)-1,2,3,4-tetrahydro-quinoline-6-carbonyl]-amide]",0.03
13,"CC1(C)CC(c2cccc(N3CCOCC3)c2)Nc2c(C(=O)NS(C)(=O)=O)cc(F)cc21 (stereo not shown) [Example 56, N-[6-fluoro-4,4-dimethyl-2-(3-morpholin-4-yl-phenyl)-1,2,3,4-tetrahydro-quinoline-8-carbonyl]-methanesulfonamide]",0.03
14,"CN(C)c1cccc(C2CC(C)(C)c3cc(Cl)cc(C(=O)NS(=O)(=O)C4CC4)c3N2)c1 (stereo not shown) [Example 61, Cyclopropanesulfonic acid [6-chloro-2-(3-dimethylamino-phenyl)-4,4-dimethyl-1,2,3,4-tetrahydro-quinoline-8-carbonyl]-amide]",0.1
15,"CC1(C)CC(c2cccc(N3CCOC3=O)c2)Nc2c(C(=O)NS(C)(=O)=O)cc(Cl)cc21 (stereo not shown) [Example 64, N-{6-chloro-4,4-dimethyl-2-[3-(2-oxo-oxazolidin-3-yl)-phenyl]-1,2,3,4-tetrahydro-quinoline-8-carbonyl}-methanesulfonamide]",0.1
16,"Cc1cc(C(=O)NS(=O)(=O)C2CC2)cc2c1NC(c1cccc(N3CCOCC3)c1)CC2(C)C (stereo not shown) [Example 66, Cyclopropanesulfonic acid [4,4,8-trimethyl-2-(3-morpholin-4-yl-phenyl)-1,2,3,4-tetrahydro-quinoline-6-carbonyl]-amide]",12.8
17,"CN1CCN(c2cccc(C3CC(C)(C)c4cccc(C(=O)NS(C)(=O)=O)c4N3)c2)CC1 (stereo not shown) [Example 67, N-{4,4-dimethyl-2-[3-(4-methyl-piperazin-1-yl)-phenyl]-1,2,3,4-tetrahydro-quinoline-8-carbonyl}-methanesulfonamide]",0.02
18,"Cc1ccc(N2CCN(c3cccc(C4CC(C)(C)c5cc(F)cc(C(=O)NS(C)(=O)=O)c5N4)c3)CC2)cc1 (stereo not shown) [Example 68, N-{6-fluoro-4,4-dimethyl-2-[3-(4-p-tolyl-piperazin-1-yl)-phenyl]-1,2,3,4-tetrahydro-quinoline-8-carbonyl}-methanesulfonamide]",0.003
19,"CC1(C)CC(c2cccc(N3CCCC3)c2)Nc2c(C(=O)NS(C)(=O)=O)cc(Cl)cc21 (stereo not shown) [Example 71, N-[6-chloro-4,4-dimethyl-2-(3-pyrrolidin-1-yl-phenyl)-1,2,3,4-tetrahydro-quinoline-8-carbonyl]-methanesulfonamide]",0.08
20,"CC1(C)CC(c2ccc(F)c(Cl)c2)Nc2ccc(C(=O)NS(=O)(=O)C3CC3)nc21 (stereo not shown) [Example 78, Cyclopropanesulfonic acid [6-(3-chloro-4-fluoro-phenyl)-8,8-dimethyl-5,6,7,8-tetrahydro-[1,5]naphthyridine-2-carbonyl]-amide]",28.9
21,"CC1(C)CC(c2cccc(N3CCOCC3)c2)Nc2ccc(C(=O)NS(=O)(=O)C3CC3)nc21 (stereo not shown) [Example 79, Cyclopropanesulfonic acid [8,8-dimethyl-6-(3-morpholin-4-yl-phenyl)-5,6,7,8-tetrahydro-[1,5]naphthyridine-2-carbonyl]-amide]",4.46
22,"CC1(C)CC(c2ccc(F)c(Cl)c2)Nc2ccc(C(=O)NS(C)(=O)=O)nc21 (stereo not shown) [Example 81, N-[6-(3-chloro-4-fluoro-phenyl)-8,8-dimethyl-5,6,7,8-tetrahydro-[1,5]naphthyridine-2-carbonyl]-methanesulfonamide]",0.43
